According to PMC8863579, “Effects of pharmacological inhibition of the sodium‐dependent phosphate cotransporter 2b (NPT2b) on intestinal phosphate absorption in mouse and rat models” (Pharmacology Research & Perspectives, 2022):

Assays:
[1] = target: T1, mouse NPT2b (Mus musculus, UniProt Q9DBP0); assay: 33P-phosphate uptake in CHO cells expressing mouse NPT2b; assay type: cell-based; details: geometric mean; 2.5 µM phosphate, 60 min, room temperature
T1 construct: Full-Length cDNA Cloning and Generation of Cell Lines Over-Expressing Human, Mouse, and Rat NPT2b; host or cells: CHO-K1 / T-REx CHO, pcDNA5/TO, tetracycline-induced
T1 sequence (Q9DBP0 1-697): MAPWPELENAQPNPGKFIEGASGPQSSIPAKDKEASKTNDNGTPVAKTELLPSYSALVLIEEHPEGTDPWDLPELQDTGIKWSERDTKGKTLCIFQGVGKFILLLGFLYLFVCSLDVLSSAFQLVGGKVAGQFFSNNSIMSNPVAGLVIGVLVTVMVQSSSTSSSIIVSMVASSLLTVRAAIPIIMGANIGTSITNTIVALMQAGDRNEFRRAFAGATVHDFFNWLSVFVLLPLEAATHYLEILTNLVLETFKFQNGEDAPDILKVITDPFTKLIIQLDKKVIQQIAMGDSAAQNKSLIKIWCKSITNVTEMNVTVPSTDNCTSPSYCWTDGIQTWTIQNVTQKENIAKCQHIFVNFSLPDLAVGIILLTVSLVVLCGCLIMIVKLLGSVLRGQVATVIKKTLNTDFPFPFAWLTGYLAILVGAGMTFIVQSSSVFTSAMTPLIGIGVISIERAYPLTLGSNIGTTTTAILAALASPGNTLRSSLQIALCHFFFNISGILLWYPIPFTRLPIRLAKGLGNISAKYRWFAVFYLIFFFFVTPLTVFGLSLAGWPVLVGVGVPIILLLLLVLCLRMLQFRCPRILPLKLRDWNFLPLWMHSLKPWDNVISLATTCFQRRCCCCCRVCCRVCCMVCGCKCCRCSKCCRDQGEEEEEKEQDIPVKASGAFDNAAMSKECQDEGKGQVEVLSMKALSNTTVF
Method: (§1) T‐Rex™ Chinese Hamster Ovary cells (CHO; Thermo Fisher Scientific) stably expressing human, mouse, or rat NPT2b under a tetracycline‐inducible promoter were generated using standard cDNA transfection and clone selection procedures (see Supporting Information). Cells were plated in 96‐well CytoStar‐T® scintillating microplates and were incubated overnight in growth media plus 100 ng/ml of tetracycline to induce expression of NPT2b. The next day, cells were washed 3 times with 200 µl assay buffer (137 mM NaCl, 5.4 mM KCl, 2.8 mM CaCl2, 1.2 mM MgSO4, and 14 mM Tris‐HCl buffer, pH 7.5). LY3358966 serially diluted 1‐to‐3 in DMSO was added to cells with assay buffer. An equal volume of H3 ^33PO4 (PerkinElmer) in assay buffer supplemented with 5 µM potassium phosphate was then added to initiate radiolabeled phosphate (^33P‐phosphate) uptake. The final phosphate concentration was 2.5 µM and the final DMSO concentration was 1%. Following a 60‐min incubation at room temperature, an equal volume of assay buffer containing 400 µM phloretin was added to stop ^33P‐phosphate uptake. The plate was immediately read on a Wallac MicroBeta Trilux liquid scintillation counter. Percent inhibition at all concentrations tested was calculated, and IC50 values were then determined using a 4‐parameter logistic curve fitting equation.
The vendors for target cDNA are listed in supplemental Table 1. […]

[2] = target: T2, Human NPT2c (Homo sapiens, UniProt Q8N130); assay: 33P-phosphate uptake in CHO cells expressing human NPT2c; assay type: cell-based
T2 construct: Full Length cDNA Cloning and Generation of Cell Lines Over-Expressing Human NPT2a, NPT2c, Pit1, and Pit2; host or cells: CHO-K1 / T-REx CHO, pJTI R4 CMV-TO, tetracycline-induced
T2 sequence (Q8N130 1-599): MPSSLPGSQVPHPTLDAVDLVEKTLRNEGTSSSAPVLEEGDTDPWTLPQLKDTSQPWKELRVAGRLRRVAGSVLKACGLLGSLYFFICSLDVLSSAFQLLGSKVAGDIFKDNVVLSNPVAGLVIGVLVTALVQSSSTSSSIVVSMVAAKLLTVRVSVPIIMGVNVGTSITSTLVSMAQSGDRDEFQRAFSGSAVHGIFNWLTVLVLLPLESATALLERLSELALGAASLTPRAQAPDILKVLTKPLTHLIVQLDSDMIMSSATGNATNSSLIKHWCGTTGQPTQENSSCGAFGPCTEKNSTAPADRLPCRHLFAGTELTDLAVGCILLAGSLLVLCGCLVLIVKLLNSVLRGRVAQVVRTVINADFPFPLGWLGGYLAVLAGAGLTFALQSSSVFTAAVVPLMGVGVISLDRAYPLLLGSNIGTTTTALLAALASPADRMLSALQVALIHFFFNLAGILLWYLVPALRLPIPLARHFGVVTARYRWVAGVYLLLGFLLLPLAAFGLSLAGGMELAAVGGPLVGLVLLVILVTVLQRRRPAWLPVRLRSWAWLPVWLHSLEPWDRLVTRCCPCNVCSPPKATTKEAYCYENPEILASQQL
Method: as §1, with “The final phosphate concentration was 2.5 µM and the final DMSO concentration was 1%. Following a 60‐min incubation at room temperature, an equal volume of assay buffer containing 400 µM phloretin was added to stop ^33P‐phosphate uptake.” left out
Similar methods were used to measure the effects of LY3358966 on other transporters of interest, except that constitutive promoters were used to generate CHO cells over‐expressing human PiT1 and PiT2. The ^33P‐phosphate uptake was measured after 45 min at 20°C for the NPT2a, NPT2c, PiT1, and PiT2 assays. […]

IC50 [1]: 43.9 nM
IC50 ([2]; geometric mean, 45 min at 20°C): 251 nM
Selectivity ([2]; ratio of IC50 of human NPT2c assay to that of human NPT2b assay): 8
SMILES: CC1(C)CN(C(=O)NCCCCO)CCN1Cc1cccc(C(=O)Nc2sc3c(c2C(=O)Nc2cc(F)c(CCc4ccc(C(=O)O)cc4)c(F)c2)CCCC3)c1 [LY3358966, 4‐[2‐[2,6‐difluoro‐4‐[[2‐[[3‐[[4‐(4‐hydroxybutylcarbamoyl)‐2,2‐dimethyl‐piperazin‐1‐yl]methyl]benzoyl]amino]‐4,5,6,7‐tetrahydrobenzothiophene‐3‐carbonyl]amino]phenyl]ethyl]benzoic acid]
